Experimental findings from EP2669372A1, “HPPD variants and methods of use” (Bayer CropScience AG, priority 2010, dated 2012) are described below.

Common to all, as to experiment: biochemical
For assay [1], the target named is T1, Arabidopsis HPPD single point mutant "SEQ ID No. 35" (Arabidopsis thaliana, UniProt P93836, E252S).
T1 construct: encoding mutant HPPD polypeptide, plus containing at the 5' end a nucleic acid encoding an alanine and 6 histidine amino acids; Ala + His6 behind Met1 (N); made in house; host or cells: E. coli BL21 (DE3) (described for the wild type construct)
T1 sequence (P93836 whole entry E252S): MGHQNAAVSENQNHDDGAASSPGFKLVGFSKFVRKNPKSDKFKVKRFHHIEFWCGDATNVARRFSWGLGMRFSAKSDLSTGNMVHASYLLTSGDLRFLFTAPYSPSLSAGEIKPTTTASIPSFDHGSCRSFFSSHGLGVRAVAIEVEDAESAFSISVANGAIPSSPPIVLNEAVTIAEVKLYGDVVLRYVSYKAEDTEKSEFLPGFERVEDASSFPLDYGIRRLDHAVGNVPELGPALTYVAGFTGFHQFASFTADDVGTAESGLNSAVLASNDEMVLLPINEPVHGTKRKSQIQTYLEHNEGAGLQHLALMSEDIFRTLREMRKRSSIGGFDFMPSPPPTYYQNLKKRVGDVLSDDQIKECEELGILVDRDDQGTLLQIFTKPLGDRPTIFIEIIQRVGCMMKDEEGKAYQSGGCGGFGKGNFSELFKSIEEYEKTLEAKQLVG
The text has this:
(§1) In this content, pI50-value means the log value of the concentration of inhibitor necessary to inhibit 50% of the enzyme activity in molar concentration.

The target of assay [2] is T2, Arabidopsis HPPD single point mutant "SEQ ID No. 40" (Arabidopsis thaliana, UniProt P93836, V269A).
T2 construct: encoding mutant HPPD polypeptide, plus containing at the 5' end a nucleic acid encoding an alanine and 6 histidine amino acids; made in house; host or cells: E. coli BL21 (DE3) (described for the wild type construct)
T2 sequence (P93836 whole entry V269A): as the sequence (P93836 whole entry E252S) above, with S252E, V269A counted along it
Source text: as §1

The target of assay [3] is T3, Arabidopsis HPPD single point mutant "SEQ ID No. 42" (Arabidopsis thaliana, UniProt P93836, P280A).
T3 construct: encoding mutant HPPD polypeptide, plus containing at the 5' end a nucleic acid encoding an alanine and 6 histidine amino acids; made in house; host or cells: E. coli BL21 (DE3) (described for the wild type construct)
T3 sequence (P93836 whole entry P280A): as the sequence (P93836 whole entry E252S) above, with S252E, P280A counted along it
Source text: as §1

Assay [4] has as its target T4, Arabidopsis HPPD single point mutant "SEQ ID No. 44" (Arabidopsis thaliana, UniProt P93836, L368M).
T4 construct: encoding mutant HPPD polypeptide, plus containing at the 5' end a nucleic acid encoding an alanine and 6 histidine amino acids; made in house; host or cells: E. coli BL21 (DE3) (described for the wild type construct)
Source text: as §1

Assay [5] has as its target T5, Arabidopsis HPPD single point mutant "SEQ ID No. 46" (Arabidopsis thaliana, UniProt P93836, K421I).
T5 construct: encoding mutant HPPD polypeptide, plus containing at the 5' end a nucleic acid encoding an alanine and 6 histidine amino acids; made in house; host or cells: E. coli BL21 (DE3) (described for the wild type construct)
Source text: as §1

In assay [6] the target is T6, Arabidopsis HPPD single point mutant "SEQ ID No. 48" (Arabidopsis thaliana, UniProt P93836, K421Q).
T6 construct: encoding mutant HPPD polypeptide, plus containing at the 5' end a nucleic acid encoding an alanine and 6 histidine amino acids; made in house; host or cells: E. coli BL21 (DE3) (described for the wild type construct)
T6 sequence (P93836 whole entry K421Q): as the sequence (P93836 whole entry E252S) above, with S252E, K421Q counted along it
Source text: as §1

For assay [7], the target named is T7, Arabidopsis HPPD single point mutant "SEQ ID No. 50" (Arabidopsis thaliana, UniProt P93836, K421V).
T7 construct: encoding mutant HPPD polypeptide, plus containing at the 5' end a nucleic acid encoding an alanine and 6 histidine amino acids; made in house; host or cells: E. coli BL21 (DE3) (described for the wild type construct)
T7 sequence (P93836 whole entry K421V): as the sequence (P93836 whole entry E252S) above, with S252E, K421V counted along it
Source text: as §1

Where two headings read alike, the source gives them in different places.

T5 sequence (P93836 whole entry K421I): as the sequence (P93836 whole entry E252S) above, with S252E, K421I counted along it
T4 sequence (P93836 whole entry L368M): as the sequence (P93836 whole entry E252S) above, with S252E, L368M counted along it

Regarding `Cc1nn(C)c(O)c1C(=O)c1ccc(C(F)(F)F)cc1S(C)(=O)=O` [Pyrasulfotole], the IC50 in assay [1] is 50.1 µM; in assay [2] it was 39.8 µM; in assay [3] it was 39.8 µM; in assay [4] (read-out: pI50 (converted)) it was 10 µM; in assay [5], 50.1 µM; in assay [6] it was 15.8 µM. Also, the IC50 in assay [7] is 39.8 µM.
Turning to `Cc1ccc(S(=O)(=O)Oc2c(C(=O)c3ccc(Cl)cc3Cl)c(C)nn2C)cc1` [Pyrazolat], the IC50 was 20 µM in assay [1]; 39.8 µM in assay [2]; 20 µM in assay [3]; 12.6 µM in assay [4]; 31.6 µM in assay [5]; 10 µM in assay [6]. Also, the IC50 in assay [7] is 31.6 µM.
